Patent publication US20180244629A1, “Compounds And Compositions For The Treatment Of Cancer” (The Broad Institute, Inc., priority 2013, published 2018)
Like-named read-outs stand apart in the source and are kept apart here.

What was measured:
COLO741 cells = test: COLO741 Assay (Cell Titer Glo viability); assay type: cell-based; conditions: Homo sapiens, COLO-741, Example 18; Mean ± SD (n = 3); read-out: Potency (EC50 nM) COLO741
Method: (§1) C0L0741 Assay Protocol. Day 0: C0L0741 cells (ECACC, C0L0741 93052621) are grown to 95% confluence in RPMI, 10% FBS/Pen/Strep/L-Glutamine. Day 1: Plate cells (1500 per well) in 40 μl culturing media using Corning 384-well plates (3570), incubate in standard TC conditions (5% CO2, 95% humidity, 37° C.) for 24 h. Day 2: Dilute each concentration of a half-log serial dilution of compound (1 mM-100 nM) 1:200 in culturing media and add […] (50 μl total volume) of that dilution to designated wells (8 replicates per concentration). The final dilution will be 1000×([…]). Day 4: Remove plate from incubator to cool for 20 minutes to room temperature. Add 40 μl of a 25% Promega Cell Titer Glo solution (diluted 1:3 with room temperature PBS) with Thermo combi or multichannel and incubate for 10 minutes. Read on Perkin-Elmer EnVision with US LUM settings for 0.1 second per well.
(§2) Compounds as shown were tested against various cells lines in vitro according to the methods described herein. Cells are plated in 384-well format in a total volume of 40 μl. Indicated compound concentrations were added 24 hrs after plating the cells. After 48 hrs cell viability was determined using Cell Titer Glo® Luminescent Cell Viability Assay.

H2122 cells = test: H2122 Assay (Cell Titer Glo viability); assay type: cell-based; conditions: Homo sapiens
Method: Selective toxicity in cell line panel. H2122 Assay Protocol Day 0: H2122 cells (ATCC, H2122 CCL-5985) are grown to 95% confluence in RPMI, 10% FBS/Pen/Strep/L-Glutamine. Day 1: Plate cells (750 per well) in 40 μl culturing media using Corning 384-well plates (3570), incubate in standard TC conditions (5% CO2, 95% humidity, 37 degrees C.) for 24 h. Day 2: Dilute each concentration of a half-log serial dilution of compound (1 mM-100 nM) 1:200 in culturing media and add 10 μl (50 μl total volume) of that dilution to designated wells (8 replicates per concentration). The final dilution will be 1000×([…]). Day 4: Remove plate from incubator to cool for 20 minutes to room temperature. Add 40 μl of a 25% Promega Cell Titer Glo solution (diluted 1:3 with room temperature PBS) with Thermo combi or multichannel and incubate for 10 minutes. Read on Perkin-Elmer EnVision with US LUM settings for 0.1 second per well.
as §2

HeLa cells = test: HeLa Cytotoxicity Assay (Cell Titer Glo viability); assay type: cell-based; conditions: Homo sapiens, HeLa
Method: HeLa Cytotoxicity Assay Protocol: Day 0: HeLa cells (ATCC, HeLa CCL-2) are grown to 95% confluence in DMEM, 10% FBS/Pen/Strep/L-Glutamine. Day 1: Plate cells (1000 per well) in 40 μl culturing media using Corning 384-well plates (3570), incubate in standard TC conditions (5% CO2, 95% humidity, 37 degrees C.) for 24 hours. Day 2: Dilute each concentration of a half-log serial dilution of compound (1 mM-100 nM) 1:200 in culturing media and add 10 μl (50 μl total volume) of that dilution to designated wells (8 replicates per concentration). The final dilution will be 1000×(1 μM-100 pM). Day 4: Remove plate from incubator to cool for 20 minutes to room temperature. Add 40 μl of a 25% Promega Cell Titer Glo solution (diluted 1:3 with room temperature PBS) with Thermo combi or multichannel and incubate for 10 minutes. Read on Perkin-Elmer EnVision with US LUM settings for 0.1 second per well.
as §2
as §2, with “Known PDE3 inhibitors” for “Compounds”, “shown below” for “shown”

H1563 = H1563 cell line viability (Cell Titer Glo); assay type: cell-based; conditions: Homo sapiens, NCI-H1563; n = 2; read-out: Potency (EC50) H1563
Method: as §2

A549 cells = test: A549 Cytotoxicity Assay (Cell Titer Glo viability); assay type: cell-based; conditions: Homo sapiens, A549
Method: as §1, with “A549 Cytotoxicity Assay” for “C0L0741 Assay”, “0: A549” for “0: C0L0741”, “cells (ATCC, A549 CCL-185)” for “cells (ECACC, C0L0741 93052621)”, “cells (1000” for “cells (1500”, “10 min.” for “10 minutes.”
A549 Assay Protocol. Day 0: A549 cells (ATCC) are grown in a Triple flask (NUNC) to ˜95% confluence (TrypLE Phenol Red free) and resuspended for dispensing at 25,000 cells/mL of DMEM, 10% FBS/Pen/Strep/L-Glutamine (using the TAP Compact SelecT automated cell culture system). Day 1: Plate cells at 1000 per well in 40 uL media (DMEM/10% FBS/Pen/Strep/L-Glutamine) using Corning 8867BC 384 well plates; incubate in standard TC conditions (5% CO2; 95% humidity, 37° C.) for 24 hours (Compact SelecT). Day 2: Add 100 nL compound per well at dose into 40 uL assay volume using a pin tool (CyBi Well). Pin 100 nL cytotoxic compounds, mitoxantrone (CID 4212) to positive control wells to a final concentration of 10 μM (100 nL 4 mM DMSO stock). Incubate for […] at 37° C. in Liconic incubator, 95% humidity 5% CO2. Day 4: Remove plate from incubator, cool for 15 minutes to room temperature; add 20 μL 50% Promega CellTiterGlo (diluted 1:1 with PBS, pH 7.4) with Thermo Combi. Incubate at room temperature for 5 minutes. Read plates on Perkin-Elmer EnVision with standard luminescence settings for 0.1 sec per well.
as §2
as §2, with “Known PDE3 inhibitors” for “Compounds”, “shown below” for “shown”

PDE3 = conditions: reference value; read-out: PDE3 activity (ref); cited from earlier work
[1] = n = 2, read-out: Potency (EC50) A549
[2] = NCI-H2122, n = 2, read-out: Potency (EC50) H2122
[3] = n = 2, read-out: Potency (EC50) HeLa

Question: Which EC50 (COLO741 cells) does the source give for O=C1CN2Cc3c(ccc(Cl)c3Cl)NC2=N1 here?
Answer: 12.2 ± 0.9 nM

Question: What about the EC50 (H2122 cells; NCI-H2122, Example 18, Mean ± SD (n = 3), read-out: Potency (EC50 nM) H2122) of the same compound?
Answer: 17.4 ± 3.5 nM

Question: What about the EC50 (HeLa cells; Example 18, Mean ± SD (n = 3), read-out: Potency (EC50 nM) HeLa) of the same compound?
Answer: 6.8 ± 0.9 nM

Question: With O=C1CCC(c2ccccc2)=NN1 as the compound, how does the EC50 (H1563) read?
Answer: > 10 µM

Question: And the EC50 (A549 cells; [1])?
Answer: > 10000 nM

Question: With CC1CC(=O)NN=C1c1ccc(N)cc1 (stereo not shown) as the compound, how does the EC50 (H1563) read?
Answer: > 10 µM

Question: What about the EC50 (A549 cells; [1]) of the same compound?
Answer: > 10000 nM

Question: What does the source list for C[C@@H]1CC(=O)NN=C1c1ccc(N)cc1?
Answer: EC50 (H1563): > 10 µM; EC50 (A549 cells; [1]): > 10000 nM

Question: What does the source list for CC1CC(=O)NN=C1c1ccc(N2CCCCC2)c([N+](=O)[O-])c1 (stereo not shown)?
Answer: EC50 (H1563): 0.003 µM; EC50 (A549 cells; [1]): > 10000 nM; EC50 (H2122 cells; [2]): 1 nM; EC50 (HeLa cells; [3]): 1 nM

Question: With CC1CC(=O)NN=C1c1ccc(N2CCOCC2)c([N+](=O)[O-])c1 (stereo not shown) as the compound, how does the EC50 (H1563) read?
Answer: 0.003 µM

Question: What about the EC50 (A549 cells; [1]) of the same compound?
Answer: > 10000 nM

Question: For COc1ccc(CC(=O)N2CCN(c3ccc(C4=NNC(=O)CC4C)cc3[N+](=O)[O-])CC2)cc1 (stereo not shown), which EC50 (H1563) is on record?
Answer: > 10 µM

Question: What about the EC50 (A549 cells; [1]) of the same compound?
Answer: > 10000 nM

Question: What does the source list for CC1CC(=O)NN=C1c1ccc(N)c([N+](=O)[O-])c1 (stereo not shown)?
Answer: EC50 (H1563): > 10 µM; EC50 (A549 cells; [1]): > 10000 nM

Question: Which EC50 (H1563) does the source give for CC1CC(=O)NN=C1c1ccc(N(C)C)c([N+](=O)[O-])c1 (stereo not shown) here?
Answer: 0.04 µM

Question: What about the EC50 (A549 cells; [1]) of the same compound?
Answer: > 10000 nM

Question: What does the source list for CC1CC(=O)NN=C1c1ccc(NCCO)c([N+](=O)[O-])c1 (stereo not shown)?
Answer: EC50 (H1563): 0.04 µM; EC50 (A549 cells; [1]): > 10000 nM; EC50 (H2122 cells; [2]): 11 nM; EC50 (HeLa cells; [3]): 4 nM

Question: For CC1CC(=O)NN=C1c1ccc(N)c(N)c1 (stereo not shown), which EC50 (H1563) is on record?
Answer: > 10 µM

Question: And the EC50 (A549 cells; [1])?
Answer: > 10000 nM

Question: For CC1CC(=O)NN=C1c1ccc(/N=C\c2ccccc2[N+](=O)[O-])cc1 (stereo not shown), which EC50 (H1563) is on record?
Answer: > 10 µM

Question: What about the EC50 (A549 cells; [1]) of the same compound?
Answer: > 10000 nM

Question: For O=C(O)Cc1n[nH]c(=O)c2ccccc12, which EC50 (H1563) is on record?
Answer: > 10 µM

Question: And the EC50 (A549 cells; [1])?
Answer: > 10000 nM

Question: Which results are given for CCN(CC)c1ccc(C(=O)Nc2cccc(OC)c2)cc1[N+](=O)[O-]?
Answer: EC50 (H1563): > 10 µM; EC50 (A549 cells; [1]): > 10000 nM

Question: With CCN(CC)c1ccc(C#N)cc1[N+](=O)[O-] as the compound, how does the EC50 (H1563) read?
Answer: > 10 µM

Question: And the EC50 (A549 cells; [1])?
Answer: > 10000 nM

Question: Which EC50 (H1563) does the source give for CCN(CC)c1ccc(C(=O)O)cc1[N+](=O)[O-] here?
Answer: > 10 µM

Question: And the EC50 (A549 cells; [1])?
Answer: > 10000 nM

Question: With O=C1CN2Cc3c(ccc(Cl)c3Cl)N=C2N1 [Anagrelide, reference compound] as the compound, how does the EC50 (A549 cells; known PDE3 inhibitors, Mean (n = 3), read-out: Potency (EC50 nM) A549) read?
Answer: > 10000 nM

Question: What about the IC50 (PDE3) of the same compound?
Answer: 0.036 µM

Question: What about the EC50 (HeLa cells; known PDE3 inhibitors, Mean (n = 3), read-out: Potency (EC50 nM) HeLa) of the same compound?
Answer: 8.2 nM
